This passage reports TGI and GI50 results from PubChem BioAssay (NCI).

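A five-concentration, 48-hour dose response in 96-well plates underlies each endpoint, interpolated linearly between surrounding concentrations. GI50 marks 50% less growth. TGI is the concentration that stops growth completely.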

Test systems include DMS 114 small cell lung; HT29 colon; NCI-H226 lung; NCI-H460 lung; SK-MEL-2 melanoma; SK-OV-3 ovarian; SNB-19 CNS; U251 CNS; UACC-257 melanoma; SK-MEL-5 melanoma.
Assay in all cases: NCI tumour cell line growth inhibition, 48 h

Turning to `Cc1cc2c(C(C)C)c(O)c(O)c(C=Nc3ccccc3)c2c(O)c1-c1c(C)cc2c(C(C)C)c(O)c(O)c(C=Nc3ccccc3)c2c1O`, the TGI with DMS 114 small cell lung, in the assay with HT29 colon, with NCI-H226 lung, with NCI-H460 lung, with SK-MEL-2 melanoma and in the assay on SK-OV-3 ovarian was above 100 µM each time. In the assay with SNB-19 CNS, the TGI was above 100 µM.
Regarding `CC1=C/C(=C2/N=C(N(C)C)SS2)C(C)=N1`, the TGI with DMS 114 small cell lung, with HT29 colon, in the assay on NCI-H226 lung, in the assay on NCI-H460 lung, in the assay with SK-OV-3 ovarian and with SNB-19 CNS was above 100 µM in each case. The TGI with U251 CNS and in the assay on UACC-257 melanoma was above 100 µM throughout.
With `CCCCS(=O)CC(CO)NC(=O)/C=C/c1c(C)[nH]c(=O)[nH]c1=O` (stereo not drawn), the TGI in the assay on DMS 114 small cell lung turned out to be 25.1 µM; with HT29 colon, 122 µM; in the assay with NCI-H226 lung it was 34 µM; with NCI-H460 lung, 17.2 µM; in the assay on SK-MEL-2 melanoma it was 23.4 µM; in the assay with SK-MEL-5 melanoma, 21.5 µM. Besides, the TGI in the assay on SK-OV-3 ovarian was found to be 65.3 µM; in the assay with SNB-19 CNS it was 24.8 µM; in the assay on U251 CNS, 26.7 µM; in the assay with UACC-257 melanoma it was 55 µM.
`C[C@]12CCc3sc(-c4cccc(F)c4)nc3C1=CC[C@@H]1[C@@H]2CC[C@]2(C)C(=O)CC[C@@H]12`: the GI50 with HT29 colon was 2.69 µM; in the assay on NCI-H460 lung, 2.78 µM; in the assay with SK-MEL-2 melanoma, 2.74 µM; with SK-MEL-5 melanoma it was 4.05 µM; in the assay on SK-OV-3 ovarian, 2.91 µM; in the assay with SNB-19 CNS, 4.79 µM. The GI50 is 2 µM in the assay with U251 CNS and 6.12 µM in the assay with UACC-257 melanoma. The TGI was above 100 µM with HT29 colon; 8.27 µM with NCI-H460 lung; 10.7 µM in the assay on SK-MEL-2 melanoma; 16.9 µM in the assay with SK-MEL-5 melanoma; 9.13 µM in the assay with SK-OV-3 ovarian; above 100 µM in the assay with SNB-19 CNS. Also, the figures for the TGI in the assay on U251 CNS and with UACC-257 melanoma were 13.6 µM and above 100 µM, respectively.
Consider `O=C1CCCN1CCCN=c1cc2n(-c3ccc(Cl)cc3)c3ccccc3nc-2cc1Nc1ccc(Cl)cc1`, for which the TGI in the assay on DMS 114 small cell lung was 20.2 µM; with HT29 colon, 13 µM; in the assay with NCI-H226 lung it was 32.3 µM; in the assay with NCI-H460 lung it was 22.1 µM; with SK-MEL-2 melanoma, 30.7 µM; in the assay on SK-MEL-5 melanoma, 19 µM. The TGI in the assay with SK-OV-3 ovarian turned out to be 80.7 µM; with SNB-19 CNS it was 98.8 µM; with U251 CNS, 54.2 µM; with UACC-257 melanoma, 24.7 µM.
Take `O=c1c2c3c(sc2nc2n1N=C(c1ccc([N+](=O)[O-])cc1)CS2)CCCC3`: the TGI in the assay on HT29 colon, with NCI-H226 lung, in the assay with NCI-H460 lung, in the assay on SK-MEL-5 melanoma, in the assay on SK-OV-3 ovarian and in the assay on U251 CNS was above 100 µM throughout. Moreover, the TGI in the assay with UACC-257 melanoma is above 100 µM.
In the case of `Cn1c(=O)c2nc(NCCO)cnc2n(C)c1=O`, the TGI in the assay with DMS 114 small cell lung, in the assay with HT29 colon, with NCI-H460 lung, with SK-MEL-2 melanoma, in the assay with SK-MEL-5 melanoma and in the assay with SK-OV-3 ovarian was above 100 µM in each case. Further, the TGI in the assay on SNB-19 CNS, in the assay on U251 CNS and in the assay with UACC-257 melanoma was above 100 µM throughout.
On to `O=C(c1ccccc1)c1nn(-c2ccccc2)c2nc3nc(-c4ccccc4)cc(=O)n3nc12`, for which the GI50 was 24.7 µM with HT29 colon; 47.4 µM with NCI-H226 lung; 23.8 µM with SK-MEL-2 melanoma; 13.6 µM with SK-MEL-5 melanoma; 62.2 µM with SK-OV-3 ovarian; 42.7 µM with SNB-19 CNS. In addition, the GI50 in the assay on U251 CNS was 32.6 µM; in the assay with UACC-257 melanoma, 30.7 µM. For the same compound, the TGI in the assay with HT29 colon is 64.2 µM; with NCI-H226 lung, above 100 µM; with SK-MEL-2 melanoma, 65.6 µM; in the assay on SK-MEL-5 melanoma, 27.1 µM; with SK-OV-3 ovarian it was above 100 µM; with SNB-19 CNS, above 100 µM. For the same compound, the TGI with U251 CNS was above 100 µM; with UACC-257 melanoma it was 61.4 µM.
As to `CCc1c(C)c2ccc(OCC(=O)N=Nc3c(O)[nH]c4ccccc34)c(C)c2oc1=O`, the GI50 is above 33.3 µM in the assay with NCI-H226 lung, above 33.3 µM in the assay on SK-MEL-2 melanoma and 1.06 µM with SK-MEL-5 melanoma. Also, the TGI in the assay on NCI-H226 lung, with SK-MEL-2 melanoma and in the assay on SK-MEL-5 melanoma was above 33.3 µM in each case.
Regarding `O=C1CSC(C(N=Nc2ccc(Cl)cc2)c2nc3ccccc3[nH]2)=N1` (stereo not drawn), the TGI was 58.5 µM in the assay on DMS 114 small cell lung; above 100 µM in the assay with HT29 colon; 52 µM in the assay on NCI-H226 lung; above 100 µM in the assay on NCI-H460 lung; 41.8 µM with SK-MEL-2 melanoma; 88.4 µM in the assay with SK-MEL-5 melanoma. The TGI in the assay with SK-OV-3 ovarian, in the assay on SNB-19 CNS, with U251 CNS and in the assay with UACC-257 melanoma was above 100 µM throughout.
In the case of `NC(=O)SCC(=O)Nc1ccc2ncccc2c1`, the TGI in the assay with HT29 colon, in the assay on NCI-H226 lung, with NCI-H460 lung, in the assay with SK-MEL-2 melanoma, in the assay on SK-MEL-5 melanoma and in the assay on SK-OV-3 ovarian was above 100 µM each time. The TGI in the assay with SNB-19 CNS is above 100 µM; with U251 CNS, 48.7 µM; in the assay with UACC-257 melanoma, above 100 µM.
